Format in all cases: functional
One experiment relates to Cooperia. Kind of experiment: Antiparasitic activity against Cooperia […] at dose of 0.10 mg/kg in sheep anthelmintic test. The following applies: dose 0.1 mg/kg.
The test system of another experiment is Haemonchus contortus. Kind of experiment: Antiparasitic activity against Haemonchus contortus at dose of 0.10 mg/kg in sheep anthelmintic test. The following applies: dose 0.1 mg/kg.
The next experiment concerns Trichostrongylus axei. In words: Antiparasitic activity against Trichostrongylus axei at dose of 0.10 mg/kg in sheep anthelmintic test. The following applies: dose 0.1 mg/kg.
Experiment [1] deals with Trichostrongylus colubriformis. In words: Antiparasitic activity against Trichostrongylus colubriformis at dose of 0.10 mg/kg in sheep anthelmintic test. As to conditions: dose 0.1 mg/kg.
For experiment [2], the system named is Teladorsagia circumcincta. In words: Antiparasitic activity against Ostertagia circumcincta at dose of 0.10 mg/kg in sheep anthelmintic test. As to conditions: dose 0.1 mg/kg.
The subject of experiment [3] is Oesophagostomum columbianum. In words: Antiparasitic activity against Oesophagostomum columbianum at dose of 0.10 mg/kg in sheep anthelmintic test. As to conditions: dose 0.1 mg/kg.
Another experiment has as its system Artemia. Kind of experiment: In vitro antiparasitic activity in brine shrimp assay.

Each structure is given as a SMILES string.

With `CCC(C)[C@H]1O[C@]2(CC[C@@H]1C)C[C@@H]1C[C@@H](C/C=C(\C)[C@@H](O[C@H]3C[C@H](OC)[C@@H](O[C@H]4C[C@H](OC)[C@H](N)[C@H](C)O4)[C@H](C)O3)[C@@H](C)/C=C/C=C3\CO[C@@H]4[C@H](O)C(C)=C[C@@H](C(=O)O1)[C@]34O)O2` (some centres not stated), the Reduction is listed as greater than 95% with Cooperia; greater than 95% in the experiment on Haemonchus contortus; less than 50% with Trichostrongylus axei; less than 50% in experiment [1]; greater than 95% in experiment [2]; greater than 95% in experiment [3]. In the experiment on Artemia, the IC100 stood at 1730 ng/mL.

Consider `CCC(C)[C@H]1O[C@]2(C=C[C@@H]1C)C[C@@H]1C[C@@H](C/C=C(\C)[C@@H](O[C@H]3C[C@H](OC)[C@@H](O[C@H]4C[C@H](OC)[C@@H](N)[C@H](C)O4)[C@H](C)O3)[C@@H](C)/C=C/C=C3\CO[C@@H]4[C@H](O)C(C)=C[C@@H](C(=O)O1)[C@]34O)O2` (some centres not stated), for which the Reduction with Cooperia is greater than 95%; with Haemonchus contortus it was greater than 95%; with Trichostrongylus axei, less than 50%; in experiment [1] it was less than 50%; in experiment [2], greater than 95%; in experiment [3], greater than 95%. For the same molecule, the IC100 in the experiment with Artemia is 2600 ng/mL.

In the case of `CCC(C)[C@H]1O[C@]2(CC[C@@H]1C)C[C@@H]1C[C@@H](C/C=C(\C)[C@@H](O[C@H]3C[C@H](OC)[C@@H](O[C@H]4C[C@H](OC)[C@H](NC(=O)COC)[C@H](C)O4)[C@H](C)O3)[C@@H](C)/C=C/C=C3\CO[C@@H]4[C@H](O)C(C)=C[C@@H](C(=O)O1)[C@]34O)O2` (some centres not stated), the Reduction is on record as greater than 95% with Cooperia; greater than 95% with Haemonchus contortus; greater than 95% in the experiment on Trichostrongylus axei; 76% in experiment [1]; greater than 95% in experiment [2]; greater than 95% in experiment [3]. The molecule also came in with an IC100 with Artemia of 870 ng/mL.

With `CCC(C)[C@H]1O[C@]2(C=C[C@@H]1C)C[C@@H]1C[C@@H](C/C=C(\C)[C@@H](O[C@H]3C[C@H](OC)[C@@H](O[C@H]4C[C@H](OC)[C@H](NC(=O)C(C)(C)C)[C@H](C)O4)[C@H](C)O3)[C@@H](C)/C=C/C=C3\CO[C@@H]4[C@H](O)C(C)=C[C@@H](C(=O)O1)[C@]34O)O2` (some centres not stated), the Reduction in the experiment with Cooperia is greater than 95%; in the experiment with Haemonchus contortus, greater than 95%; with Trichostrongylus axei, 76%; in experiment [1], 76%; in experiment [2], 76%; in experiment [3], greater than 95%. The molecule further yielded an IC100 in the experiment with Artemia of 1730 ng/mL.

Take `CCC(C)[C@H]1O[C@]2(C=C[C@@H]1C)C[C@@H]1C[C@@H](C/C=C(\C)[C@@H](O[C@H]3C[C@H](OC)[C@@H](O[C@H]4C[C@H](OC)[C@H](NCCO)[C@H](C)O4)[C@H](C)O3)[C@@H](C)/C=C/C=C3\CO[C@@H]4[C@H](O)C(C)=C[C@@H](C(=O)O1)[C@]34O)O2` (some centres not stated): the Reduction is reported as greater than 95% with Cooperia; greater than 95% in the experiment on Haemonchus contortus; less than 50% in the experiment with Trichostrongylus axei; 76% in experiment [1]; greater than 95% in experiment [2]; greater than 95% in experiment [3]. Besides, the IC100 in the experiment with Artemia was determined as 3470 ng/mL.

For `CCC(C)[C@H]1O[C@]2(C=C[C@@H]1C)C[C@@H]1C[C@@H](C/C=C(\C)[C@@H](O[C@H]3C[C@H](OC)[C@@H](O[C@H]4C[C@H](OC)[C@H](N)[C@H](C)O4)[C@H](C)O3)[C@@H](C)/C=C/C=C3\CO[C@@H]4[C@H](O)C(C)=C[C@@H](C(=O)O1)[C@]34O)O2` (some centres not stated), the Reduction is on record as greater than 95% in the experiment with Cooperia; greater than 95% in the experiment with Haemonchus contortus; less than 50% in the experiment with Trichostrongylus axei; 51% in experiment [1]; greater than 95% in experiment [2]; greater than 95% in experiment [3]. This molecule also displayed an IC100 in the experiment with Artemia of 1730 ng/mL.
